Assay results as given in patent US8372848B2, “Melanin-concentrating hormone receptor antagonists and methods of use” (Mixture Sciences, Inc., priority 2004, dated 2013).
pEC50: −log10 of the molar value.

Key:
rats = test: MCH-induced food intake after icv administration; assay type: in vivo, rat; details: 2 nmol icv
Procedure: To determine inhibitory effects of TPI 1361-17 on MCH-induced food intake, rats were habituated to a wire bottom cage for more than 3 weeks prior to the experiment. Experiments were carried out from 6 a.m. to 7 a.m. when rats were satiated. […] On the other hand, five nmol of TPI 1361-17 suppressed cumulative food intake by 75% even at 4h (FIG. 5B).
To determine the effects of TPI 1361-17 on MCH-induced food intake, rats were randomly divided into three groups: 1) TPI 1361-17 (dissolved in DMSO) and 2 nmol of MCH; 2) MCH 2 nmol, 3) ACSF. Each mixture contained a DMSO equivalent concentration to that of the antagonist solution (up to 5% (v/v)). Ten μl of each solution was administered into lateral ventricle for 2 minutes. The injections were done between 7:00-8:00 a.m., and food intake was monitored for 4 h after the injection.
For animal studies, adult male Sprague-Dawley rats weighing 200-300g were obtained from Charles River Laboratories (Wilmington, Mass.), bearing a 23-gauge stainless steel cannula placed into the right lateral ventricle. Rats were housed individually and maintained on a 12 h light-dark cycle (6:00 am-6:00 pm light) with free access to tap water and rat chaw (PROLAB RMH 2500, containing 23.0% protein, 4.5% fat, gross energy 4.5 kcal/g. PMI nutrition international, LLC. Brentwood, Mo.). Prior to all studies, rats were handled and habituated for 7 days, and 10 μl of artificial cerebrospinal fluid (ACSF: NaCl 124, KCl 5, CaCl2 2.4 MgSO4 2, KH2PO4 1.25, NaHCO3 26 and glucose 10, in mM) was injected through the cannula to minimize stress effects at the time of the experiment. Cannula placement was confirmed in all animals by evaluating the response to 50 ng of angiotensin II. Only animals drinking more than 5 ml of water in 1 h were used in feeding studies.

rat MCH1R = rat MCH1R (Rattus norvegicus, UniProt P97639); test: MCH-induced Ca2+ mobilization (FLIPR) in HEK 293T cells expressing rat MCH1R; assay type: cell-based; details: HEK 293T cell expressing rat MCH1R; read-out: EC50 for stimulation of Ca2+ mobilization
Sequence of rat MCH1R (P97639 whole entry): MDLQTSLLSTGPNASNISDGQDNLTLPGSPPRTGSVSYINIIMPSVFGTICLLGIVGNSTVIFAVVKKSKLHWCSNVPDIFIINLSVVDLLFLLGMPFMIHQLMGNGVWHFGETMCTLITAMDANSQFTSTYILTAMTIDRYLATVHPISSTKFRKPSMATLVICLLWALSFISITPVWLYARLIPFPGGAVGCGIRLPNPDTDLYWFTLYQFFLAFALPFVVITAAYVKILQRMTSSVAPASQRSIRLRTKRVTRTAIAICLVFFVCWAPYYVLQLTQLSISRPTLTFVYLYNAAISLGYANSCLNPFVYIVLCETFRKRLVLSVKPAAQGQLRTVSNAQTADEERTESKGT

Structure (SMILES): CSCC[C@@H]1NC(=O)[C@@H](NC(=O)[C@H](CCCNC(=N)N)NC(=O)[C@H](CC(C)C)NC(=O)[C@H](CCSC)NC(=O)[C@H](CC(=O)O)NC(=O)[C@H](Cc2ccccc2)NC(=O)[C@@H](N)CC(=O)O)CSSC[C@@H](C(=O)N[C@@H](Cc2c[nH]c3ccccc23)C(=O)N[C@@H](CCC(N)=O)C(=O)N[C@H](C(=O)O)C(C)C)NC(=O)[C@@H]2CCCN2C(=O)[C@H](CCCNC(=N)N)NC(=O)[C@H](Cc2ccc(O)cc2)NC(=O)[C@H](C(C)C)NC(=O)[C@H](CCCNC(=N)N)NC(=O)CNC(=O)[C@H](CC(C)C)NC1=O [MCH, reference compound]
- Feeding in satiated rats (rats): induced rapid and robust feeding
- pEC50 (rat MCH1R): 9.05
